Reference: US10214542B2, “Modified macrocyclic compounds” (BAYER PHARMA AKTIENGESELLSCHAFT, priority 2015, dated 2019)

Experiments:
CDK9/CycT1 = biological target: T1, CDK9/CycT1 (Homo sapiens, UniProt P50750); test: CDK9/CycT1 kinase assay (TR-FRET, Method 1a); format: biochemical; conditions: 10 μM ATP; for IC50: Method 1a; for Selectivity CDK9 over CDK2: IC50 (CDK2)/IC50 (CDK9): Methods 1a and 2a
T1 construct: Recombinant full-length His-tagged human CDK9 and CycT1; His; purchased Invitrogen PV4131; host or cells: insect cells
T1 sequence (P50750 whole entry): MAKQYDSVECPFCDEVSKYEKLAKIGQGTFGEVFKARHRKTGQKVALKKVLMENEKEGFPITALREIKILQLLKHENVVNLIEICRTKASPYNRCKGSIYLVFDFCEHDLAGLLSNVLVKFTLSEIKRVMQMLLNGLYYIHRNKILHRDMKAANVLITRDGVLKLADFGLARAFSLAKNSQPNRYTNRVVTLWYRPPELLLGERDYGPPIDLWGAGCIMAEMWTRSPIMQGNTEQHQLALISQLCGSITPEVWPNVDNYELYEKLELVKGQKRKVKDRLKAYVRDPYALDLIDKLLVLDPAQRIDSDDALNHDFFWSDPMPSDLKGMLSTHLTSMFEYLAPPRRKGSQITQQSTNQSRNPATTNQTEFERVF
T1 sequence (O60563 whole entry partner): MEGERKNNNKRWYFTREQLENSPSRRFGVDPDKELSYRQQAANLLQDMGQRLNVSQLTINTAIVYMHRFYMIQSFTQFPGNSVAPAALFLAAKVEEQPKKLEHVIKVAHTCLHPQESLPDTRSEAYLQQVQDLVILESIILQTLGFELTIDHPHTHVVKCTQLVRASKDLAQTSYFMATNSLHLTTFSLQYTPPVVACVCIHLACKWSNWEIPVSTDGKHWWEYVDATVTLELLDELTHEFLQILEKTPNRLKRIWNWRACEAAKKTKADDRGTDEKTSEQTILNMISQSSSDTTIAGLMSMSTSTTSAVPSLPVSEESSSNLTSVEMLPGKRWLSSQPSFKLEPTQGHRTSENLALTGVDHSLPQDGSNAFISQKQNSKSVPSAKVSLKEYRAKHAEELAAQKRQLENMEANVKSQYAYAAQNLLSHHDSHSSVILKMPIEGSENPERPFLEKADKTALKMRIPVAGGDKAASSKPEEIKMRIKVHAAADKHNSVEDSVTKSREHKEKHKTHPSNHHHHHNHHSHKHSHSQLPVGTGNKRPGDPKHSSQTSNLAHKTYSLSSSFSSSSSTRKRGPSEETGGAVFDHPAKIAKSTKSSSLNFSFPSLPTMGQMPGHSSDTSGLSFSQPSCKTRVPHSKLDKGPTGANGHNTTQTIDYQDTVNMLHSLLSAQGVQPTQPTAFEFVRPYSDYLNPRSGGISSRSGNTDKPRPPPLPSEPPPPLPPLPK
Description: 1a. CDK9/CycT1 Kinase Assay:
CDK9/CycT1-inhibitory activity of compounds of the present invention was quantified employing the CDK9/CycT1 TR-FRET assay as described in the following paragraphs:
Recombinant full-length His-tagged human CDK9 and CycT1, expressed in insect cells and purified by Ni-NTA affinity chromatography, were purchased from Invitrogen (Cat. No PV4131). As substrate for the kinase reaction biotinylated peptide biotin-Ttds-YISPLKSPYKISEG (C-terminus in amid form) was used which can be purchased e.g. from the company JERINI Peptide Technologies (Berlin, Germany).
(§1) For the assay 50 nl of a 100 fold concentrated solution of the test compound in DMSO was pipetted into a black low volume 384 well microtiter plate (Greiner Bio-One, Frickenhausen, Germany), 2 μl of a solution of CDK9/CycT1 in aqueous assay buffer [50 mM Tris/HCl pH 8.0, 10 mM MgCl2, 1.0 mM dithiothreitol, 0.1 mM sodium ortho-vanadate, 0.01% (v/v) Nonidet-P40 (Sigma)] were added and the mixture was incubated for 15 min at 22° C. to allow pre-binding of the test compounds to the enzyme before the start of the kinase reaction. […] The concentration of CDK9/CycT1 was adjusted depending of the activity of the enzyme lot and was chosen appropriate to have the assay in the linear range, typical concentrations were in the range of 1 μg/mL. The reaction was stopped by the addition of 5 μl of a solution of TR-FRET detection reagents (0.2 μM streptavidine-XL665 [Cisbio Bioassays, Codolet, France] and 1 nM anti-RB(pSer807/pSer811)-antibody from BD Pharmingen [#558389] and 1.2 nM LANCE EU-W1024 labeled anti-mouse IgG antibody [Perkin-Elmer, product no. AD0077]) in an aqueous EDTA-solution (100 mM EDTA, 0.2% (w/v) bovine serum albumin in 100 mM HEPES pH 7.5).
(§2) The resulting mixture was incubated 1 h at 22° C. to allow the formation of complex between the phosphorylated biotinylated peptide and the detection reagents. Subsequently the amount of phosphorylated substrate was evaluated by measurement of the resonance energy transfer from the Eu-chelate to the streptavidine-XL. Therefore, the fluorescence emissions at 620 nm and 665 nm after excitation at 350 nm was measured in a HTRF reader, e.g. a Rubystar (BMG Labtechnologies, Offenburg, Germany) or a Viewlux (Perkin-Elmer). The ratio of the emissions at 665 nm and at […] was taken as the measure for the amount of phosphorylated substrate. The data were normalised (enzyme reaction without inhibitor=0% inhibition, all other assay components but no enzym=100% inhibition).

CDK2/CycE = biological target: T2, CDK2/CycE (Homo sapiens, UniProt P24941); test: CDK2/CycE kinase assay (TR-FRET, Method 2a); format: biochemical; conditions: 10 μM ATP
T2 construct: GST; purchased ProQinase GmbH (Freiburg, Germany); host or cells: insect cells (Sf9)
Description: 2a. CDK2/CycE Kinase Assay:
CDK2/CycE-inhibitory activity of compounds of the present invention was quantified employing the CDK2/CycE TR-FRET assay as described in the following paragraphs:
Recombinant fusion proteins of GST and human CDK2 and of GST and human CycE, expressed in insect cells (Sf9) and purified by Glutathion-Sepharose affinity chromatography, were purchased from ProQinase GmbH (Freiburg, Germany). As substrate for the kinase reaction biotinylated peptide biotin-Ttds-YISPLKSPYKISEG (C-terminus in amid form) was used which can be purchased e.g. from the company JERINI Peptide Technologies (Berlin, Germany).
as §1, with “CDK2/CycE” for “CDK9/CycT1”, “130 ng/mL.” for “1 μg/mL.”
as §2, with “TR-FRET” for “HTRF”

MOLM-13 cells = test: Proliferation assay, Cell Titre-Glo viability (Method 3); format: cell-based; conditions: Homo sapiens; MOLM-13, 72-hour exposure; read-out: Inhibition of MOLM-13 cell proliferation IC50
Experimental: A2780 human ovarian carcinoma cells (ECACC #93112519) and non-adherent MOLM-13 human acute myeloid leukemia cells (DSMZ ACC 554) were seeded at a density of 3,000 cell/well (A2780) or 5,000 cells/well (MOLM-13) in a 96-well multititer plate in 150 μL of growth medium supplemented 10% fetal calf serum. After 24 hours, cell viability of one plate (zero-point plate) was determined with the Cell Titre-Glo Luminescent Cell Viability Assay (Promega), while the medium of the other plates was supplemented with the test substances in various concentrations (0 μM, as well as in the range of 0.0001-10 μM; the final concentration of the solvent dimethyl sulfoxide was adjusted to 0.1%) using a Hewlett-Packard HP D300 Digital Dispenser. Cell viability was assessed after 72-hour exposure with the Cell
Titre-Glo Luminescent Cell Viability Assay (Promega). IC50 values (inhibitory concentration at 50% of maximal effect) were determined by means of a 4 parameter fit on measurement data which were normalized to vehicle (DMSO) treated cells (=100%) and measurement readings taken immediately before compound exposure (=0%).

With `CC(C)(C)OC(=O)N=S(C)(=O)Cc1cc2nc(c1)Nc1cc(c(F)cn1)-c1ccc(F)cc1OCCCCCN2` (racemic) [Example 9, (rac)-tert-butyl[{[17,21-difluoro-2,3,4,5,6,7-hexahydro-13H-12,8-(azeno)-14,18-(metheno)-1,7,13,15-benzoxatriazacycloicosin-10-yl]methyl}(methyl)oxido-λ^6-sulfanylidene]carbamate] the IC50 (CDK9/CycT1) was 13 nM, the “Selectivity CDK9 over CDK2: IC50 (CDK2)/IC50 (CDK9)” value (“Selectivity CDK9 over CDK2: IC50” below) (CDK9/CycT1) was 7.4 and the IC50 (CDK2/CycE) was 96 nM. It also gave an IC50 (MOLM-13 cells) of 19 nM.

For `CSCc1cc2nc(c1F)N(C)CCCCOc1cc(F)ccc1-c1cc(ncc1F)N2` [Example 12, 8,16,20-trifluoro-6-methyl-9-[(methylsulfanyl)methyl]-3,4,5,6-tetrahydro-2H,12H-11,7-(azeno)-13,17-(metheno)-1,6,12,14-benzoxatriazacyclononadecine], the IC50 (CDK9/CycT1) was 25 nM, the “Selectivity CDK9 over CDK2: IC50” value (CDK9/CycT1) was 1.1 and the IC50 (CDK2/CycE) was 27 nM. For the same molecule, the IC50 (MOLM-13 cells) was 100 nM.

For `CC(C)(C)OC(=O)N=S(C)(=O)Cc1cc2nc(c1)Nc1cc(c(F)cn1)-c1ccc(F)cc1OCCCN2` (racemic) [Example 7, (rac)-tert-butyl[{[15,19-difluoro-2,3,4,5-tetrahydro-11H-10,6-(azeno)-16,12-(metheno)-1,5,11,13-benzoxatriazacyclooctadecin-8-yl]methyl}(methyl)oxido-λ^6-sulfanylidene]carbamate], the IC50 (CDK9/CycT1) was 7.5 nM, the “Selectivity CDK9 over CDK2: IC50” value (CDK9/CycT1) was 3.6 and the IC50 (CDK2/CycE) was 27 nM. It also gave an IC50 (MOLM-13 cells) of 6.8 nM.

In the case of `CN1CCCCOc2cc(F)ccc2-c2nc(ncc2F)Nc2cc(CS(C)(=N)=O)cc1c2` (racemic) [Example 23, (rac)-16,20-difluoro-6-methyl-9-[(S-methylsulfonimidoyl)methyl]-3,4,5,6-tetrahydro-2H,12H-13,17-(azeno)-11,7-(metheno)-1,6,12,14-benzoxatriazacyclononadecine], the IC50 (CDK9/CycT1) is reported as 5.2 nM, the “Selectivity CDK9 over CDK2: IC50” value (CDK9/CycT1) is reported as 20.0 and the IC50 (CDK2/CycE) is reported as 104 nM. It also gave an IC50 (MOLM-13 cells) of 9.8 nM.

`CSCc1cc2nc(c1)Nc1cc(c(F)cn1)-c1ccc(F)cc1OCCCN2` [Example 1, 15,19-Difluoro-8-[(methylsulfanyl)methyl]-2,3,4,5-tetrahydro-11H-10,6-(azeno)-12,16-(metheno)-1,5,11,13-benzoxatriazacyclooctadecine] was tested, and the IC50 (CDK9/CycT1) was 2.9 nM, the “Selectivity CDK9 over CDK2: IC50” value (CDK9/CycT1) was 28.1 and the IC50 (CDK2/CycE) was 81.5 nM. The IC50 (MOLM-13 cells) was 8 nM.

For `C[S+]([O-])Cc1cc2nc(c1)OCCCCCc1cc(F)ccc1-c1cc(ncc1F)N2` (racemic) [Example 19, (rac)-2,19-difluoro-9-[(methylsulfinyl)methyl]-14,15,16,17-tetrahydro-6H,13H-7,11-(azeno)-5,1-(metheno)-12,4,6-benzoxadiazacyclononadecine], the IC50 (CDK9/CycT1) was 15 nM, the “Selectivity CDK9 over CDK2: IC50” value (CDK9/CycT1) was 24.7 and the IC50 (CDK2/CycE) was 371 nM. The IC50 (MOLM-13 cells) was 231 nM.

For `CS(=N)(=O)Cc1cc2nc(c1)Nc1cc(c(F)cn1)-c1ccc(F)cc1OCCCCCN2` (racemic) [Example 10, (rac)-17,21-difluoro-10-[(S-methylsulfonimidoyl)methyl]-2,3,4,5,6,7-hexahydro-13H-12,8-(azeno)-14,18-(metheno)-1,7,13,15-benzoxatriazacycloicosine], the IC50 (CDK9/CycT1) was 3.4 nM, the “Selectivity CDK9 over CDK2: IC50” value (CDK9/CycT1) was 8.2 and the IC50 (CDK2/CycE) was 28 nM. It also gave an IC50 (MOLM-13 cells) of 4.4 nM.

With `CN1CCCCNc2cc(F)ccc2-c2nc(ncc2F)Nc2cc(CS(C)(=N)=O)cc1c2.O=CO` (racemic) [Example 17, (rac)-16,20-difluoro-6-methyl-9-[(S-methylsulfonimidoyl)methyl]-1,2,3,4,5,6-hexahydro-12H-17,13-(azeno)-11,7-(metheno)-1,6,12,14-benzotetraazacyclononadecine; salt with formic acid] the IC50 (CDK9/CycT1) was 4.2 nM, the “Selectivity CDK9 over CDK2: IC50” value (CDK9/CycT1) was 17.6 and the IC50 (CDK2/CycE) was 74 nM. It also gave an IC50 (MOLM-13 cells) of 13 nM.

`CS(=N)(=O)Cc1cc2nc(c1)OCCCCCc1cc(F)ccc1-c1cc(ncc1F)N2` (racemic) [Example 20, (rac)-2,19-difluoro-9-[(S-methylsulfonimidoyl)methyl]-14,15,16,17-tetrahydro-6H,13H-7,11-(azeno)-5,1-(metheno)-12,4,6-benzoxadiazacyclononadecine] was tested, and the IC50 (CDK9/CycT1) was 5.5 nM, the “Selectivity CDK9 over CDK2: IC50” value (CDK9/CycT1) was 29.5 and the IC50 (CDK2/CycE) was 162 nM. It also gave an IC50 (MOLM-13 cells) of 79 nM.

For `CS(=N)(=O)Cc1cc2cc(c1)OCCCCNc1cc(F)ccc1-c1nc(ncc1F)N2` (racemic) [Example 16, (rac)-16,20-difluoro-9-[(S-methylsulfonimidoyl)methyl]-2,3,4,5-tetrahydro-1H-17,13-(azeno)-7,11-(metheno)-6,1,12,14-benzoxatriazacyclononadecine], the IC50 (CDK9/CycT1) was 3.9 nM, the “Selectivity CDK9 over CDK2: IC50” value (CDK9/CycT1) was 7.7 and the IC50 (CDK2/CycE) was 30 nM. For the same molecule, the IC50 (MOLM-13 cells) was 4.1 nM.

With `CC(C)(C)OC(=O)N=S(C)(=O)Cc1cc2cc(c1)OCCCCNc1cc(F)ccc1-c1nc(ncc1F)N2` (racemic) [Example 15, (rac)-tert-butyl[{[16,20-difluoro-2,3,4,5-tetrahydro-1H,12H-13,17-(azeno)-11,7-(metheno)-6,1,12,14-benzoxatriazacyclononadecin-9-yl]methyl}(methyl)oxido-λ^6-sulfanylidene]carbamate] the IC50 (CDK9/CycT1) was 8.9 nM, the “Selectivity CDK9 over CDK2: IC50” value (CDK9/CycT1) was 29.4 and the IC50 (CDK2/CycE) was 262 nM. For the same molecule, the IC50 (MOLM-13 cells) was 18 nM.
